Experiment [1] deals with ENR+CD organoids (ISC to Paneth cell differentiation). Nature of the experiment: Primary screen: CCh-stimulated lysozyme secretion LYZ.S, 2.5-D 384-well ENR+CD organoid differentiation. The settings on record: primary screen, FC vs plate median. It counts as cell-based, mouse. An excerpt: (§1) High-throughput screening.
The subject of another experiment is ENR+CD organoids. Kind of experiment: Primary screen: ATP (CellTiter-Glo 3D, CTG) cell number/viability, 2.5-D 384-well ENR+CD organoids.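 On all read-outs here: compounds given at plating and again on day 3 over a 6-day differentiation from ENR+CV stem-cell-enriched precursors, ATP measured on day 6, plate median as control.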 Conditions: primary screen; for Z.CTG: standard z score; for Dose.FC.CTG: FC vs plate median. Background: In ATP-based viability assays light output follows the ATP content of the culture.
In experiment [2] the test system is ENR+CD organoids (ISC to Paneth cell differentiation). Nature of the experiment: Primary screen: basal (non-stimulated) lysozyme secretion LYZ.NS, 2.5-D 384-well ENR+CD organoid differentiation. It counts as cell-based, mouse. Conditions: primary screen; for Z.LYZ.NS: standard z score; for Dose.FC.LYZ.NS: FC vs plate median.
Text: as §1

Structures can show the parent of a compound that is named as a salt.

Consider `CC[C@@H]1/C=C/C=C/C[C@H](C)[C@H](O)[C@](C)(O)C(=O)[C@H](C)[C@@H](O)[C@H](C)C(=O)[C@H](C)[C@@H](O)[C@H](C)/C=C/C(=O)O[C@H]2[C@@H](C)[C@@H](CC1)O[C@@]1(CC[C@@H](C)[C@@H](C[C@H](C)O)O1)[C@@H]2C` [Oligomycin A], for which the Dose.FC.LYZ.S in experiment [1] (dose 0.08 uM) is listed as −0.243 log2 fold change; in experiment [1] (dose 0.40 uM) it was −0.274 log2 fold change; in experiment [1] (dose 2.00 uM) it was −0.269 log2 fold change; in experiment [1] (dose 10.00 uM) it was −0.288 log2 fold change. Moreover, the Z.CTG with ENR+CD organoids (dose 0.08 uM) is recorded as −1.581; with ENR+CD organoids (dose 0.40 uM) it was −1.685; in the experiment with ENR+CD organoids (dose 2.00 uM), −2.261; with ENR+CD organoids (dose 10.00 uM), −2.972. In addition, the Dose.FC.CTG with ENR+CD organoids (dose 0.08 uM) was −0.662 log2 fold change; in the experiment on ENR+CD organoids (dose 0.40 uM), −0.706 log2 fold change; with ENR+CD organoids (dose 2.00 uM) it was −0.946 log2 fold change; with ENR+CD organoids (dose 10.00 uM) it was −1.244 log2 fold change. For the same molecule, the Z.LYZ.NS is given as −1.778 in experiment [2] (dose 0.08 uM), −2.013 in experiment [2] (dose 0.40 uM), −1.857 in experiment [2] (dose 2.00 uM) and −1.943 in experiment [2] (dose 10.00 uM). Also, the Dose.FC.LYZ.NS in experiment [2] (dose 0.08 uM) is listed as −0.204 log2 fold change; in experiment [2] (dose 0.40 uM), −0.231 log2 fold change; in experiment [2] (dose 2.00 uM), −0.213 log2 fold change; in experiment [2] (dose 10.00 uM), −0.223 log2 fold change.

Turning to `CCc1c(C(=O)NCCc2ccc(N3CCCCC3)cc2)[nH]c2ccc(Cl)cc12` [Org 27569], the Dose.FC.LYZ.S in experiment [1] (dose 0.08 uM) came out at 0.174 log2 fold change; in experiment [1] (dose 0.40 uM) it was 0.032 log2 fold change; in experiment [1] (dose 2.00 uM), 0.059 log2 fold change; in experiment [1] (dose 10.00 uM) it was 0.001 log2 fold change. Besides, the Z.CTG with ENR+CD organoids (dose 0.08 uM) was determined as 0.663; in the experiment with ENR+CD organoids (dose 0.40 uM), 0.173; in the experiment on ENR+CD organoids (dose 2.00 uM) it was 0.865; in the experiment on ENR+CD organoids (dose 10.00 uM), 0.646. The Dose.FC.CTG came out at 0.278 log2 fold change with ENR+CD organoids (dose 0.08 uM), 0.072 log2 fold change with ENR+CD organoids (dose 0.40 uM), 0.362 log2 fold change in the experiment with ENR+CD organoids (dose 2.00 uM) and 0.270 log2 fold change in the experiment on ENR+CD organoids (dose 10.00 uM). The Z.LYZ.NS came out at 1.060 in experiment [2] (dose 0.08 uM), 0.445 in experiment [2] (dose 0.40 uM), 0.683 in experiment [2] (dose 2.00 uM) and 0.248 in experiment [2] (dose 10.00 uM). In addition, the Dose.FC.LYZ.NS in experiment [2] (dose 0.08 uM) is recorded as 0.122 log2 fold change; in experiment [2] (dose 0.40 uM), 0.051 log2 fold change; in experiment [2] (dose 2.00 uM), 0.078 log2 fold change; in experiment [2] (dose 10.00 uM), 0.029 log2 fold change.

On to `NC(=O)N1c2ccccc2CC(=O)c2ccccc21` [Oxcarbazepine], for which the Dose.FC.LYZ.S in experiment [1] (dose 0.08 uM) is 0.043 log2 fold change; in experiment [1] (dose 0.40 uM) it was 0.154 log2 fold change; in experiment [1] (dose 2.00 uM) it was 0.042 log2 fold change; in experiment [1] (dose 10.00 uM), −0.057 log2 fold change. The Dose.FC.CTG was −0.021 log2 fold change in the experiment with ENR+CD organoids (dose 0.08 uM), −0.103 log2 fold change in the experiment on ENR+CD organoids (dose 0.40 uM), −0.082 log2 fold change with ENR+CD organoids (dose 2.00 uM) and −0.150 log2 fold change in the experiment with ENR+CD organoids (dose 10.00 uM). Also, the Z.LYZ.NS is 0.035 in experiment [2] (dose 0.08 uM), −0.001 in experiment [2] (dose 0.40 uM), 0.349 in experiment [2] (dose 2.00 uM) and −0.527 in experiment [2] (dose 10.00 uM). Further, the Dose.FC.LYZ.NS in experiment [2] (dose 0.08 uM) is 0.004 log2 fold change; in experiment [2] (dose 0.40 uM), 0.000 log2 fold change; in experiment [2] (dose 2.00 uM) it was 0.040 log2 fold change; in experiment [2] (dose 10.00 uM), −0.061 log2 fold change.

As to `Cc1cc(C(C)(C)C)c(O)c(C)c1CC1=NCCN1` [Oxymetazoline HCl], the Dose.FC.LYZ.S was 0.143 log2 fold change in experiment [1] (dose 0.08 uM), 0.116 log2 fold change in experiment [1] (dose 0.40 uM), −0.012 log2 fold change in experiment [1] (dose 2.00 uM) and −0.046 log2 fold change in experiment [1] (dose 10.00 uM). Also, the Dose.FC.CTG with ENR+CD organoids (dose 0.08 uM) is recorded as 0.143 log2 fold change; in the experiment on ENR+CD organoids (dose 0.40 uM), 0.118 log2 fold change; in the experiment on ENR+CD organoids (dose 2.00 uM), −0.007 log2 fold change; in the experiment with ENR+CD organoids (dose 10.00 uM), 0.118 log2 fold change. Besides, the Z.LYZ.NS came to 0.515 in experiment [2] (dose 0.08 uM), 0.134 in experiment [2] (dose 0.40 uM), 0.199 in experiment [2] (dose 2.00 uM) and 0.065 in experiment [2] (dose 10.00 uM). The Dose.FC.LYZ.NS in experiment [2] (dose 0.08 uM) was determined as 0.059 log2 fold change; in experiment [2] (dose 0.40 uM), 0.015 log2 fold change; in experiment [2] (dose 2.00 uM), 0.023 log2 fold change; in experiment [2] (dose 10.00 uM) it was 0.007 log2 fold change.

With `O=C(O)/C=C/c1ccc(Cn2ccnc2)cc1` [Ozagrel HCl], the Dose.FC.LYZ.S in experiment [1] (dose 0.08 uM) was 0.119 log2 fold change; in experiment [1] (dose 0.40 uM), 0.073 log2 fold change; in experiment [1] (dose 2.00 uM), 0.135 log2 fold change; in experiment [1] (dose 10.00 uM) it was 0.061 log2 fold change. Further, the Dose.FC.CTG is reported as 0.049 log2 fold change in the experiment on ENR+CD organoids (dose 0.08 uM), 0.133 log2 fold change with ENR+CD organoids (dose 0.40 uM), 0.183 log2 fold change with ENR+CD organoids (dose 2.00 uM) and 0.229 log2 fold change in the experiment on ENR+CD organoids (dose 10.00 uM). Besides, the Z.LYZ.NS in experiment [2] (dose 0.08 uM) is listed as 1.756; in experiment [2] (dose 0.40 uM), 0.000; in experiment [2] (dose 2.00 uM), 0.308; in experiment [2] (dose 10.00 uM), −0.061. The Dose.FC.LYZ.NS in experiment [2] (dose 0.08 uM) was 0.202 log2 fold change; in experiment [2] (dose 0.40 uM) it was 0.000 log2 fold change; in experiment [2] (dose 2.00 uM), 0.035 log2 fold change; in experiment [2] (dose 10.00 uM), −0.007 log2 fold change.

In the case of `O=C(O)/C=C/c1ccc(Cn2ccnc2)cc1` [Ozagrel], the Dose.FC.LYZ.S in experiment [1] (dose 0.08 uM) is 0.145 log2 fold change; in experiment [1] (dose 0.40 uM), 0.096 log2 fold change; in experiment [1] (dose 2.00 uM) it was 0.104 log2 fold change; in experiment [1] (dose 10.00 uM) it was 0.011 log2 fold change. In addition, the Dose.FC.CTG was 0.055 log2 fold change in the experiment with ENR+CD organoids (dose 0.08 uM), 0.224 log2 fold change in the experiment with ENR+CD organoids (dose 0.40 uM), −0.063 log2 fold change in the experiment on ENR+CD organoids (dose 2.00 uM) and 0.113 log2 fold change in the experiment on ENR+CD organoids (dose 10.00 uM). For the same molecule, the Z.LYZ.NS is 0.645 in experiment [2] (dose 0.08 uM), 0.381 in experiment [2] (dose 0.40 uM), 0.698 in experiment [2] (dose 2.00 uM) and −0.068 in experiment [2] (dose 10.00 uM). For the same molecule, the Dose.FC.LYZ.NS in experiment [2] (dose 0.08 uM) is recorded as 0.074 log2 fold change; in experiment [2] (dose 0.40 uM), 0.044 log2 fold change; in experiment [2] (dose 2.00 uM), 0.080 log2 fold change; in experiment [2] (dose 10.00 uM), −0.008 log2 fold change.

On to `CC(=O)c1cc([N+](=O)[O-])c(Sc2ccc(F)cc2F)s1` [P22077], for which the Dose.FC.LYZ.S in experiment [1] (dose 0.08 uM) is recorded as −0.182 log2 fold change; in experiment [1] (dose 0.40 uM) it was 0.065 log2 fold change; in experiment [1] (dose 2.00 uM), −0.007 log2 fold change; in experiment [1] (dose 10.00 uM), −0.063 log2 fold change. Further, the Z.CTG in the experiment with ENR+CD organoids (dose 0.08 uM) is recorded as −0.516; in the experiment on ENR+CD organoids (dose 0.40 uM), 0.117; in the experiment with ENR+CD organoids (dose 2.00 uM) it was −0.320; in the experiment with ENR+CD organoids (dose 10.00 uM) it was −0.311. In addition, the Dose.FC.CTG in the experiment with ENR+CD organoids (dose 0.08 uM) is −0.216 log2 fold change; in the experiment on ENR+CD organoids (dose 0.40 uM) it was 0.049 log2 fold change; with ENR+CD organoids (dose 2.00 uM), −0.134 log2 fold change; in the experiment with ENR+CD organoids (dose 10.00 uM), −0.130 log2 fold change. The Z.LYZ.NS is recorded as 0.338 in experiment [2] (dose 0.08 uM), −0.041 in experiment [2] (dose 0.40 uM), 0.248 in experiment [2] (dose 2.00 uM) and −0.487 in experiment [2] (dose 10.00 uM). The Dose.FC.LYZ.NS is reported as 0.039 log2 fold change in experiment [2] (dose 0.08 uM), −0.005 log2 fold change in experiment [2] (dose 0.40 uM), 0.028 log2 fold change in experiment [2] (dose 2.00 uM) and −0.056 log2 fold change in experiment [2] (dose 10.00 uM).

For `C=CCc1cccc(/C=N/NC(=O)CN2CCN(Cc3ccccc3)CC2)c1O` [PAC-1], the Dose.FC.LYZ.S is reported as 0.128 log2 fold change in experiment [1] (dose 0.08 uM), 0.059 log2 fold change in experiment [1] (dose 0.40 uM), −0.006 log2 fold change in experiment [1] (dose 2.00 uM) and 0.092 log2 fold change in experiment [1] (dose 10.00 uM). The Z.CTG in the experiment on ENR+CD organoids (dose 0.08 uM) is 0.228; in the experiment with ENR+CD organoids (dose 0.40 uM) it was 0.270; in the experiment on ENR+CD organoids (dose 2.00 uM) it was −0.576; in the experiment on ENR+CD organoids (dose 10.00 uM), 0.004. The Dose.FC.CTG is reported as 0.095 log2 fold change in the experiment with ENR+CD organoids (dose 0.08 uM), 0.113 log2 fold change with ENR+CD organoids (dose 0.40 uM), −0.241 log2 fold change in the experiment with ENR+CD organoids (dose 2.00 uM) and 0.002 log2 fold change with ENR+CD organoids (dose 10.00 uM). In addition, the Z.LYZ.NS in experiment [2] (dose 0.08 uM) came to 1.365; in experiment [2] (dose 0.40 uM), 0.457; in experiment [2] (dose 2.00 uM), 1.094; in experiment [2] (dose 10.00 uM), 0.596. Further, the Dose.FC.LYZ.NS in experiment [2] (dose 0.08 uM) worked out at 0.157 log2 fold change; in experiment [2] (dose 0.40 uM), 0.053 log2 fold change; in experiment [2] (dose 2.00 uM), 0.126 log2 fold change; in experiment [2] (dose 10.00 uM), 0.068 log2 fold change.
